In publication PMC5006990 (PLoS ONE, 2016):
In brackets after ≈: the same amount, converted by molar mass.

Key:
Mtb 276 = assay: microbe, parasite or virus in culture; type: cell-based, Mycobacterium tuberculosis; settings: Mycobacterium tuberculosis, 276, read-out: MIC (µg/ml) Mtb 276
Mtb 56 = assay: microbe, parasite or virus in culture; type: cell-based, Mycobacterium tuberculosis; settings: Mycobacterium tuberculosis, 56, read-out: MIC (µg/ml) Mtb 56
Mtb 365 = assay: microbe, parasite or virus in culture; type: cell-based, Mycobacterium tuberculosis; settings: Mycobacterium tuberculosis, 365, read-out: MIC (µg/ml) Mtb 365
[1] = tested on: M. tuberculosis ATCC 35801 (strain Erdman); assay: Microtiter broth dilution MIC, Mtb Erdman; settings: resistance pattern, S3 Table
Mtb 352 = assay: microbe, parasite or virus in culture; type: cell-based, Mycobacterium tuberculosis; settings: Mycobacterium tuberculosis, 352, read-out: MIC (µg/ml) Mtb 352
Mtb 5 = assay: microbe, parasite or virus in culture; type: cell-based, Mycobacterium tuberculosis; settings: Mycobacterium tuberculosis, 5, read-out: MIC (µg/ml) Mtb 5
[2] = tested on: MDR and XDR strains of M. tuberculosis; assay: microbe, parasite or virus in culture; type: cell-based; settings: Mycobacterium tuberculosis, read-out: MIC values across the resistant strains

| SMILES | MIC (Mtb 276) | MIC (Mtb 56) | MIC (Mtb 365) | MIC (µg/ml) Mtb Erdmann [1] | MIC (Mtb 352) | MIC (Mtb 5) | MIC [2] |
| --- | --- | --- | --- | --- | --- | --- | --- |
| CC[C@@H](CO)NCCN[C@@H](CC)CO [Ethambutol, reference compound] | 4 µg/mL (≈ 19.6 µM) | 32 µg/mL (≈ 157 µM) | 32 µg/mL (≈ 157 µM) | 1 µg/mL (≈ 4.89 µM) | 1 µg/mL (≈ 4.89 µM) |  |  |
| NNC(=O)c1ccncc1 [INH, Isoniazid, reference compound] | 0.25 µg/mL (≈ 1.82 µM) | 2 µg/mL (≈ 14.6 µM) | 4 µg/mL (≈ 29.2 µM) | 0.06 µg/mL (≈ 0.438 µM) | 1 µg/mL (≈ 7.29 µM) | 2 µg/mL (≈ 14.6 µM) | 0.25 to 4 mg/L (≈ 1.82 to 29.2 µM) |
| COc1c(N2C[C@@H]3CCCN[C@@H]3C2)c(F)cc2c(=O)c(C(=O)O)cn(C3CC3)c12 [Moxifloxacin, reference compound] |  |  | 0.06 µg/mL (≈ 0.149 µM) | 0.06 µg/mL (≈ 0.149 µM) |  | 1 µg/mL (≈ 2.49 µM) |  |
| CO[C@H]1/C=C/O[C@@]2(C)Oc3c(C)c(O)c4c(O)c(c(/C=N/N5CCN(C)CC5)c(O)c4c3C2=O)NC(=O)/C(C)=C\C=C\[C@H](C)[C@H](O)[C@@H](C)[C@@H](O)[C@@H](C)[C@H](OC(C)=O)[C@@H]1C [RIF, rifampin, reference compound] | 0.015 µg/mL (≈ 0.0182 µM) | 32 µg/mL (≈ 38.9 µM) | 64 µg/mL (≈ 77.8 µM) | 0.004 µg/mL (≈ 0.00486 µM) | 0.001 µg/mL (≈ 0.00122 µM) | 8 µg/mL (≈ 9.72 µM) |  |
| [H]/N=C(/N)N[C@H]1[C@H](O)[C@@H](O)[C@H](O[C@@H]2O[C@@H](C)[C@](O)(C=O)[C@H]2O[C@@H]2O[C@@H](CO)[C@H](O)[C@@H](O)[C@@H]2NC)[C@@H](N/C(N)=N\[H])[C@@H]1O [Streptomycin, reference compound] | 0.25 µg/mL (≈ 0.43 µM) | 32 µg/mL (≈ 55 µM) | 32 µg/mL (≈ 55 µM) |  | 0.25 µg/mL (≈ 0.43 µM) |  |  |
